This note sets out measurements from PubChem BioAssay AID977605 (Broad Institute, 2014).

Active and inactive are the calls of the source.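 How the source made its calls: active means fitted curve reaches 40% activation below the top valid tested dose, in every test run; inconclusive means test runs disagree on the call; inactive means the rest, including effects opposite to the expected direction.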

One experiment is described as follows: endothelial E-selectin upregulation by compounds – imaging, HUVEC, cherry-picked samples, dose response (AID 977605).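 Further: signal is the share of imaged cells scored positive for E-selectin.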 As to conditions: HUVEC E-selectin immunostaining, at 19.5 µM (top of the series), percent of TNF-alpha response over vehicle.
`COc1ccc(NC(=O)N(C)C[C@H]2Oc3ccc(NC(=O)c4ccncc4)cc3CC(=O)N([C@H](C)CO)C[C@@H]2C)cc1`: the activation is -0.048% (inactive). On the same count and under the same terms, as for `C[C@H](CO)N1C[C@H](C)[C@H](CN(C)C(=O)Nc2ccc(C(F)(F)F)cc2)Oc2ccc(NC(=O)Cn3cnnn3)cc2CC1=O`, the figure is 0.063% (inactive). Same read-out and setting: as for `COc1ccc(C(=O)N(CCc2ccccc2)Cc2ccccc2)c(OC)n1`, the figure is -0.136% (inactive); as for `CCOc1ccc(C(=O)N2CCN(S(=O)(=O)c3cccs3)CC2)c(OCC)c1`, -0.235% (inactive). Turning to `COc1ccccc1CSc1nc2c(c(=O)n(C)c(=O)n2C)n1C`, the activation is -0.003% (inactive). The same measure, in the same setting: as for `Cc1c(C(=O)N2CCN(S(=O)(=O)c3cc(F)ccc3F)CC2)oc2ccccc12`, the figure is -0.021% (inactive); as for `CC(C)CCNC(=O)c1cn(C)c2ccc(S(=O)(=O)N3CCCC3)cc2c1=O`, -0.129% (inactive); as for `Cc1cc(C(=O)Nc2cccc3c2O[C@H](CN(C)C(=O)NC2CCCCC2)[C@@H](C)CN([C@@H](C)CO)C3=O)n(C)n1`, -0.268% (inactive). Still for that read-out and setting: as for `Cc1c(C(=O)NCc2ccco2)oc2ccccc12`, the figure is -0.246% (inactive). Turning to `COc1ccc(NC(=O)N(C)C[C@@H]2Oc3ccc(NC(=O)c4ccncc4)cc3CC(=O)N([C@@H](C)CO)C[C@H]2C)cc1`, the activation was -0.088% (inactive).

For `C[C@@H]1CN([C@@H](C)CO)C(=O)c2cc(N(C)C)ccc2O[C@@H]1CN(C)C(=O)Nc1cccc2ccccc12`, the activation was -0.224% (inactive). Still for that read-out and setting: as for `COc1ccc(S(=O)(=O)Nc2ccc3c(c2)C(=O)N([C@H](C)CO)C[C@@H](C)[C@H](CN(C)Cc2ccc(Cl)c(Cl)c2)O3)cc1`, the figure is -0.125% (inactive). Same read-out and setting: as for `Cc1noc(C)c1NC(=O)Nc1ccc2c(c1)CC(=O)N([C@@H](C)CO)C[C@H](C)[C@@H](CN(C)C(=O)Nc1ccc(F)cc1)O2`, the figure is -0.02% (inactive); as for `Cc1noc(C)c1COc1ccccc1C(=O)N1CCN(S(=O)(=O)c2ccc(F)c(F)c2)CC1`, 0.069% (inactive); as for `Cc1noc(C)c1NC(=O)N(C)C[C@H]1Oc2ccc(NS(=O)(=O)c3cccs3)cc2C(=O)N([C@H](C)CO)C[C@H]1C`, -0.05% (inactive). For the molecule `CC(C)(C)S(=O)(=O)c1cnc(-c2cnccn2)nc1N`, the activation was -0.028% (inactive). The same measure, in the same setting: as for `COc1ccc(CN2CCN(C(=O)c3ccccc3C(=O)c3ccccc3)CC2)cc1OC`, the figure is 0.003% (inactive). Same read-out and setting: as for `O=C(COc1ccc(Cl)cc1)NCCCNC(=O)c1cnccn1`, the figure is 0.135% (inactive); as for `COc1ccc(Nc2n[nH]c(N)c2C(N)=O)cc1`, -0.163% (inactive). The same measure, in the same setting: as for `COc1ccc(NC(=O)Nc2cccc3c2O[C@H](CN(C)Cc2ccc(C(=O)Nc4ccccc4N)cc2)[C@H](C)CN([C@H](C)CO)C3=O)cc1`, the figure is 1.32% (inactive); as for `COc1ccccc1OCC(=O)Nc1ccc(S(=O)(=O)N2CCN(C)CC2)cc1`, -0.127% (inactive); as for `C[C@@H]1CN([C@H](C)CO)C(=O)c2cc(NS(=O)(=O)c3cn(C)cn3)ccc2O[C@H]1CN(C)C(=O)Nc1ccc2c(c1)OCO2`, 0.041% (inactive). In the case of `NS(=O)(=O)c1ccc(NC(=O)CCC(=O)N2CCOCC2)cc1`, the activation was 0.021% (inactive). With `COc1ccc(S(=O)(=O)Nc2ccc3c(c2)C(=O)N([C@@H](C)CO)C[C@@H](C)[C@@H](CN(C)C(=O)Nc2cccc4ccccc24)O3)cc1`, the activation is -0.103% (inactive). The same measure, in the same setting: as for `C[C@@H]1CN([C@@H](C)CO)C(=O)c2cc(NC(=O)Cn3cnnn3)ccc2O[C@H]1CN(C)Cc1ccc(Oc2ccccc2)cc1`, the figure is 6.68% (inactive); as for `COc1ccc(S(=O)(=O)N(C)C[C@H]2Oc3c(NC(=O)Nc4c(C)noc4C)cccc3C(=O)N([C@@H](C)CO)C[C@H]2C)cc1`, -0.174% (inactive); as for `CC(C)NC(=O)Nc1cccc2c1O[C@@H](CN(C)Cc1ccc(C(F)(F)F)cc1)[C@@H](C)CN([C@H](C)CO)C2=O`, 0.009% (inactive). The same measure, in the same setting: as for `COC(=O)c1sc2nc(SCC(=O)N(C)c3ccccc3)n(N)c(=O)c2c1C`, the figure is 1.12% (inactive). The same measure, in the same setting: as for `C[C@@H]1CN([C@@H](C)CO)C(=O)Cc2cc(NC(=O)Nc3ccc4c(c3)OCO4)ccc2O[C@H]1CN(C)C`, the figure is -0.168% (inactive). `COc1ccc(NC(=O)NC2(C(=O)N3CCOCC3)CCCCC2)cc1`: the activation is 0.439% (inactive). The same measure, in the same setting: as for `Cc1ccccc1CNc1ncnc2cc(Cl)ccc12`, the figure is 0.221% (inactive).

`CCN(CC)c1ccc(S(=O)(=O)N2CCOCC2)cc1NC(=O)CN1C(=O)NC2(CCCC2)C1=O`: the activation was 4.54% (inactive). Same read-out and setting: as for `CCOc1cnc(C(=O)NNC(=O)c2ccccc2Br)o1`, the figure is 0.602% (inactive). Same read-out and setting: as for `CCCCSCCCNC(=O)C1CCC(CNS(=O)(=O)c2ccc(NC(C)=O)cc2)CC1` (stereo not given), the figure is 0.405% (inactive); as for `CCCCOCC1CN(CCCC)S(=O)(=O)c2c(Oc3ccc(C(C)C)cc3)cccc2O1` (stereo not given), -0.279% (inactive); as for `Cc1cc(C)c2sc(NNC(=O)C3COc4ccccc4O3)nc2c1` (stereo not given), 0.141% (inactive). The same measure, in the same setting: as for `CC(=O)NC(Cc1c[nH]c2ccccc12)C(=O)NCCc1ccccn1` (stereo not given), the figure is 0.144% (inactive); as for `C[C@H]1CN([C@@H](C)CO)C(=O)c2cccc(NC(=O)c3ccncc3)c2O[C@H]1CN(C)Cc1ccc(C(=O)Nc2ccccc2N)cc1`, 0.016% (inactive). As for `O=C(CN(Cc1ccc(F)cc1)C(=O)CNS(=O)(=O)c1ccc(F)cc1)NCc1ccco1`, the activation is -0.246% (inactive).

As for `C[C@H](CO)N1C[C@H](C)[C@H](CN(C)S(=O)(=O)c2ccccc2)Oc2c(NC(=O)Nc3ccccc3)cccc2C1=O`, the activation was -0.014% (inactive). Still for that read-out and setting: as for `C[C@@H]1CN([C@H](C)CO)C(=O)c2cc(NS(=O)(=O)c3cccs3)ccc2O[C@H]1CN(C)S(C)(=O)=O`, the figure is -0.143% (inactive). Still for that read-out and setting: as for `CCOC(=O)N1CCN(c2c(N3CCOCC3)c(=O)c2=O)CC1`, the figure is 7.45% (inactive); as for `C[C@@H]1CN([C@H](C)CO)C(=O)c2cccc(NC(=O)Nc3ccc(C(F)(F)F)cc3)c2O[C@@H]1CN(C)S(=O)(=O)c1cccs1`, -0.223% (inactive). For `O=C(COC(=O)c1ccccc1NCCO)NNC(=O)c1cccs1`, the activation is -0.279% (inactive). The same measure, in the same setting: as for `O=C(c1cc(COc2ccc(F)cc2Cl)on1)N(Cc1ccncc1)CC1CCCO1` (stereo not given), the figure is -0.279% (inactive); as for `CC(=O)N(C)C[C@@H]1Oc2cc(C#Cc3ccccn3)ccc2S(=O)(=O)N([C@H](C)CO)C[C@@H]1C`, -0.123% (inactive).

Consider `Cc1ccc(S(=O)(=O)Nc2cc(S(=O)(=O)N3CCCCC3)ccc2N2CCOCC2)cc1`, for which the activation was 0.047% (inactive). Still for that read-out and setting: as for `C=C(C)CCC(C)N1CCC(n2nccc2NC(=O)CCOc2ccccc2)CC1` (stereo not given), the figure is -0.056% (inactive); as for `C[C@H](CO)N1C[C@H](C)[C@@H](CN(C)C)Oc2cc(C#Cc3ccccc3F)ccc2S1(=O)=O`, 0.115% (inactive).

The same experiment, now with this note: HUVEC E-selectin immunostaining, at 21 µM (top of the series), percent of TNF-alpha response over vehicle.
As for `C[C@H]1CN([C@@H](C)CO)C(=O)c2cccc(NS(=O)(=O)c3cccs3)c2O[C@@H]1CN(C)Cc1ccc(C(=O)Nc2ccccc2N)cc1`, the activation is -0.225% (inactive).

In the case of `C[C@@H]1CN([C@H](C)CO)C(=O)c2cccc(NS(=O)(=O)c3ccc(F)cc3)c2O[C@@H]1CN(C)S(=O)(=O)c1cccs1`, the activation was -0.042% (inactive).

Regarding `C[C@@H]1CN([C@@H](C)CO)C(=O)c2cc(NC(=O)Nc3ccc4c(c3)OCO4)ccc2O[C@H]1CN(C)Cc1ccc(-c2ccccc2)cc1`, the activation is 2.77% (inactive). Same read-out and setting: as for `C[C@H](CO)N1C[C@H](C)[C@@H](CN(C)Cc2ccc(Cl)c(Cl)c2)Oc2c(NC(=O)CCCCCC(=O)Nc3ccccc3N)cccc2C1=O`, the figure is 3.2% (inactive); as for `C[C@H](CO)N1C[C@H](C)[C@@H](CN(C)S(=O)(=O)c2ccc(F)cc2)Oc2ccc(NS(C)(=O)=O)cc2CC1=O`, 0.279% (inactive). The same measure, in the same setting: as for `Cc1noc(C)c1S(=O)(=O)Nc1ccc2c(c1)CC(=O)N([C@H](C)CO)C[C@H](C)[C@@H](CN(C)Cc1ccc(-c3ccccc3)cc1)O2`, the figure is -0.276% (inactive); as for `CC(C)NC(=O)Nc1ccc2c(c1)CC(=O)N([C@H](C)CO)C[C@H](C)[C@H](CN(C)Cc1ccc(Cl)c(Cl)c1)O2`, 0.284% (inactive). Take `C[C@@H]1CN([C@H](C)CO)C(=O)Cc2cc(NC(=O)Nc3ccc(C(F)(F)F)cc3)ccc2O[C@H]1CN(C)Cc1ccc(Oc2ccccc2)cc1`: the activation is -0.245% (inactive). The same measure, in the same setting: as for `C[C@H](CO)N1C[C@H](C)[C@H](CN(C)S(C)(=O)=O)Oc2c(NS(C)(=O)=O)cccc2C1=O`, the figure is -0.054% (inactive); as for `COc1ccc(S(=O)(=O)Nc2ccc3c(c2)CC(=O)N([C@@H](C)CO)C[C@@H](C)[C@@H](CN(C)C(=O)NC2CCCCC2)O3)cc1`, -0.169% (inactive). Still for that read-out and setting: as for `C[C@H](CO)N1C[C@H](C)[C@H](CN(C)S(C)(=O)=O)Oc2ccc(NC(=O)C3CCCCC3)cc2C1=O`, the figure is -0.059% (inactive). Same read-out and setting: as for `COc1ccc(S(=O)(=O)N(C)C[C@H]2Oc3ccc(NC(=O)c4ccncc4)cc3C(=O)N([C@H](C)CO)C[C@H]2C)cc1`, the figure is 4.32% (inactive); as for `C[C@@H]1CN([C@@H](C)CO)C(=O)c2cccc(NC(=O)c3ccncc3)c2O[C@H]1CN(C)C(=O)Nc1cccc2ccccc12`, 1.89% (inactive). As for `C[C@@H]1CN([C@H](C)CO)C(=O)Cc2cc(NC(=O)Cc3cn(C)c4ccccc34)ccc2O[C@@H]1CN(C)Cc1ccc(C(F)(F)F)cc1`, the activation was 0.433% (inactive). For `C[C@@H]1CN([C@@H](C)CO)C(=O)c2cc(NC(=O)CCCCCC(=O)Nc3ccccc3N)ccc2O[C@H]1CN(C)C(=O)Nc1ccc2c(c1)OCO2`, the activation is 0.05% (inactive). Same read-out and setting: as for `COc1ccc(S(=O)(=O)N(C)C[C@H]2Oc3ccc(NC(=O)Nc4ccc5c(c4)OCO5)cc3CC(=O)N([C@H](C)CO)C[C@H]2C)cc1`, the figure is 0.257% (inactive).
